ChEMBL document CHEMBL4725449, “Brain Penetrable Inhibitors of Ceramide Galactosyltransferase for the Treatment of Lysosomal Storage Disorders” (ACS Med Chem Lett, 2020)
pIC50: −log10 of the molar value.

Assays:
[1] = biological target: T1, UDP-glucuronosyltransferase 2B17 (Homo sapiens, UniProt O75795); experiment: Inhibition of UGT2B17 (unknown origin); assay type: ADME
T1 sequence (O75795 whole entry): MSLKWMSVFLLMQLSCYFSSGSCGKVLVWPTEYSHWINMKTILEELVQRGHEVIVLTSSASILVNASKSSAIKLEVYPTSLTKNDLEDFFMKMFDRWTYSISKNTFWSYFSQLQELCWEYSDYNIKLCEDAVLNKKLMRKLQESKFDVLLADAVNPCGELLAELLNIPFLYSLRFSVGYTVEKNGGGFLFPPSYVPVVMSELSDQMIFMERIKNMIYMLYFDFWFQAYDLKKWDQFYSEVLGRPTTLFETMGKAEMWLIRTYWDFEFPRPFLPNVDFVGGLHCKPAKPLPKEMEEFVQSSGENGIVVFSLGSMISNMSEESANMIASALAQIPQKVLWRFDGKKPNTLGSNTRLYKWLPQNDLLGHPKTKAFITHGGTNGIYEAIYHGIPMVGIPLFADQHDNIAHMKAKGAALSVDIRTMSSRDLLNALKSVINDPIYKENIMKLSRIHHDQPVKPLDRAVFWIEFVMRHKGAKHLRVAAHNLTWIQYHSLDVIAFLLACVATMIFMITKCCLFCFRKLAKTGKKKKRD

[2] = Apparent permeability of the compound at pH 6.5 to 7.4 by PAMPA; assay type: ADME
[3] = Distribution coefficient, log D of the compound; assay type: physicochemical; conditions: octanol/water
[4] = Ratio of drug concentration in brain to plasma in C57BL/6 mouse measured at 5 mins; assay type: ADME, organism-based; conditions: read-out: BPR
[5] = Clearance in Sprague-Dawley rat at 1 mg/kg, iv; assay type: ADME, organism-based; conditions: in vivo
[6] = AUC (0 to last) in Sprague-Dawley rat at 3 mg/kg, po; assay type: ADME, organism-based; parameters: time 0 - last, route oral, dose 3 mg/kg; conditions: in vivo
[7] = Oral bioavailability in Sprague-Dawley rat at 3 mg/kg; assay type: ADME, organism-based; conditions: in vivo
[8] = Clearance in C57BL/6 mouse at 1 mg/kg, iv; assay type: ADME, organism-based; conditions: in vivo
[9] = Half life in C57BL/6 mouse at 1 mg/kg, iv; assay type: ADME, organism-based; conditions: in vivo
[10] = Cmax in C57BL/6 mouse at 3 mg/kg, po; assay type: ADME, organism-based; parameters: route oral, dose 3 mg/kg; conditions: in vivo
[11] = Clearance in Beagle dog at 1 mg/kg, iv; assay type: ADME, organism-based, Canis lupus familiaris; conditions: in vivo
[12] = Oral bioavailability in Beagle dog at 3 mg/kg; assay type: ADME, organism-based, Canis lupus familiaris; conditions: in vivo
[13] = (§1) In vivo inhibition of GalCer de novo synthesis in po dosed adult C57BL/6 mouse kidney assessed as reduction in [13C] galactose incorporation into GalCer treated with compound for 1 hr prior to intraperitoneal injection of [13C] galactose measured after 5 hrs of compound administration; assay type: functional
Mus musculus [14] = experiment: as §1; assay type: functional
[15] = (§2) In vivo inhibition of SFT de novo synthesis in po dosed adult C57BL/6 mouse kidney assessed as reduction in [13C] galactose incorporation into SFT treated with compound for 1 hr prior to intraperitoneal injection of [13C] galactose measured after 5 hrs of compound administration; assay type: functional
Mus musculus [16] = experiment: as §2; assay type: functional
[17] = (§3) In vivo inhibition of GalCer de novo synthesis in adult C57BL/6 mouse kidney assessed as reduction in [13C] galactose incorporation into GalCer at 10 mg/kg, po via gavage treated with compound for 1 hr prior to intraperitoneal injection of [13C] galactose measured after 5 hrs of compound administration relative to control; assay type: functional
[18] = as §3, with “30” for “10”; assay type: functional
[19] = as §3, with “SFT” for “GalCer”, “0.3” for “10”; assay type: functional
[20] = as §3, with “SFT” for “GalCer”, “3” for “10”; assay type: functional
[21] = as §3, with “SFT” for “GalCer”, “30” for “10”; assay type: functional
[22] = In vivo inhibition of GalCer de novo synthesis in PN14 to PN21 days C57BL/6 mouse brain assessed as reduction in [13C] galactose incorporation into GalCer at 10 mg/kg, po bid for 2 days and single dose at day 3 treated 1 hr prior to intraperitoneal injection of [13C] galactose measured after 5 hrs of last dose relative to control; assay type: functional; conditions: C57BL/6, 72 h, time 3 day
[23] = In vivo inhibition of GalCerde novo synthesis in po dosed PN14 to PN21 days C57BL/6 mouse brain assessed as reduction in [13C] galactose incorporation into GalCer administered twice for 2 days and single dose at day 3 treated 1 hr prior to intraperitoneal injection of [13C] galactose measured after 5 hrs of last dose; assay type: functional; conditions: C57BL/6, 72 h, time 3 day
[24] = biological target: T2, 2-hydroxyacylsphingosine 1-beta-galactosyltransferase (Mus musculus, UniProt Q64676); experiment: Inhibition of mouse UGT8 assessed as redcution in SFT accumulation
T2 sequence (Q64676 whole entry): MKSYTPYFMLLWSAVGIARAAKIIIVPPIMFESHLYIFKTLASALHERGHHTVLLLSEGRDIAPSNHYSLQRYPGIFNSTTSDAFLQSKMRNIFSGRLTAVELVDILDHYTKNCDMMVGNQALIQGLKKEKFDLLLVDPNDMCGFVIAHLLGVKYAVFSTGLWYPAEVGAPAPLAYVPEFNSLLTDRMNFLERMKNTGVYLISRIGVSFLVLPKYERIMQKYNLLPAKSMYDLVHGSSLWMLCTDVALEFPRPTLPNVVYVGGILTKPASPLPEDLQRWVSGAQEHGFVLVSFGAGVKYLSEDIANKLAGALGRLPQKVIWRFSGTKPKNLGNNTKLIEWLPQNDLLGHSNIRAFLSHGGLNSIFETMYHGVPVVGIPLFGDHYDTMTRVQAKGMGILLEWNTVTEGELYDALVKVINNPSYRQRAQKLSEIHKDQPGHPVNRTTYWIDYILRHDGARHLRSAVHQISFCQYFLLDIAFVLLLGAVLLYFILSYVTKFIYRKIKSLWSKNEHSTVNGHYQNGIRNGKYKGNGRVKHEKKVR

[25] = Protein binding in C57BL/6 mouse plasma; assay type: ADME, cell-free; conditions: read-out: PPB

CNC(=O)c1csc2c(C(F)(F)F)cc(N3CCC(OC(=O)N[C@@H](C)COC(F)(F)F)CC3)nc12
pIC50 [1]: < 5.00 | Papp [2]: > 80 ×10⁻⁶ cm/s | logD [3]: 5.09 | Kp at 5 min [4]: 0.69 | clearance [5]: 6.52 mL/min/kg | AUC(0-t) [6]: 3060 ng·h/mL | bioavailability [7]: 40% | clearance [8]: 24.7 mL/min/kg | half-life [9]: 67.8 min | Cmax [10]: 306 ng/mL | clearance [11]: 6.32 mL/min/kg | bioavailability [12]: 52% | ED50 [13]: 1 mg/kg | inhibition (Mus musculus [14]): Dose-dependent effect | ED50 [15]: 1 mg/kg | inhibition (Mus musculus [16]): Dose-dependent effect | inhibition in vivo at 10 mg/kg [17]: 85% | inhibition in vivo at 30 mg/kg [18]: 90% | inhibition in vivo at 0.3 mg/kg [19]: 29% | inhibition in vivo at 3 mg/kg [20]: 85% | inhibition in vivo at 30 mg/kg [21]: 99% | inhibition in vivo at 10 mg/kg [22]: 94% | ED50 [23]: < 3 mg/kg | pIC50 [24]: 9.52 | fraction unbound [25]: < 0.01
